According to patent US20240261274A1, “TREATMENT OF MYC-DRIVEN CANCERS WITH GSPT1 DEGRADERS” (MONTE ROSA THERAPEUTICS, INC., priority 2021, published 2024):

Key:
Type in all cases: cell-based
Conditions in all cases: MM1 S cells, 0.3, 3 and 30 μM, 6 hours
GSPT1 = GSPT1 (Homo sapiens, UniProt P15170+Q96SW2); experiment: Selectivity western blot assay in MM1 S cells, GSPT1; parameters: endogenous in cells; host or cells: MM1 S (ATCC CRL-2974)
Procedure: (§1) MM1 S cells were purchased from ATCC (cat. Number CRL-2974), sub-cultured in 90% RPMI 1640 with 10% FBS, supplemented with 1×P/S and incubated at 37° C., 5% CO2. Compounds were stored as 10 mM DMSO stock. For the assay, MM1 S cells (3 million cells/well) were plated in 6-well plates and incubated over night. Cells were treated with respective compounds using a serial dilution: 0.3 μM, 3 μM and 30 μM as well as a vehicle only (DMSO) control for 6 hours. Media with suspension cells was subsequently transferred to 15 mL conical tubes, wells rinsed twice with ice-cold PBS and merged with cell suspension in respective 15 mL conical tube. Cells were spinned down, supernatant aspirated, pellets resuspended in ice-cold PBS and transferred to microtubes. Cells were spinned down, supernatant aspirated and pellets resuspended in 120 μL RIPA lysis buffer supplemented with protease and phosphatase inhibitors. Cell lysates were incubated on ice for 20 minutes followed by centrifugation at >20,000×g for 5 min. Supernatants were transferred to fresh microtubes and stored at −80° C. Total protein concentration was determined using a BCA assay with a BSA standard curve and concentration of all samples was adjusted to 1 mg/mL. 25 μL 4×LDS sample buffer supplemented with 100 mM DTT was added to 75 μL sample. Samples were centrifuged (8,000×g, 1 min) and incubated at 95° C. for 5 min followed by another centrifugation step (8,000×g, 1 min). 20 μL of each sample was loaded on a 4-12% gel alongside a protein molecular weight marker. Gels were run in the presence of MOPS buffer at 80 Volts for 30 min, followed by 120 Volts for 1.5 h and proteins subsequently transferred onto nitrocellulose membranes at 20 Volts for 7 min using an iBlot2 Gel Transfer Device. Membranes were then cut horizontally into two pieces, covering 80-50 kDa and 50-25 kDa. Blocking the membranes was performed by gently shaking in 5% (w/v) skim milk in TSB-T for 1 hr at room temperature. All primary antibodies were used at a 1/1000 in 5% (w/v) BSA dissolved in TBST and incubated with membranes over night at 4° C. After three washes with 1×TBST for 5 min, HRP-coupled secondary antibodies diluted in 5% (w/v) BSA/TBST (Goat Anti-Rb IgG, dil. 1/10,000; Goat Anti-Mouse IgG, dil. 1/5000) were added for 1 hr at room temperature. After three washes with 1×TBST (5 minutes each), membranes were incubated with ECL reagent for 1 min at room temperature. Chemiluminescence signals were then detected using a LAS-4000 system with default settings and signals quantified using Image Studio Lite software (version 5.2). Membrane parts previously incubated with antibody against CK1 alpha were stripped off antibodies by incubating with stripping buffer for 30 minutes followed by three washed with TBST (5 min each), blocking with 5% (w/v) skim milk for 1 hr, and incubation with primary antibody against uGAPDH overnight at 4° C. Subsequent washes, incubation with secondary antibody and signal acquisition were performed as described above.

IKZF1 = target: T1, IKZF1 (Homo sapiens, UniProt Q13422+Q96SW2); experiment: Selectivity western blot assay in MM1 S cells, IKZF1; parameters: key: A represents no degradation observed at 30 μM; B represents trace degradation at 30 μM (below 20%); C represents weak degradation at 30 μM (below 50%); D represents degradation at 30 μM (>90%); E represents degradation at 3 μM (>90%); F represents degradation at 0.3 μM (>90%)
T1 construct: endogenous in cells; host or cells: MM1 S (ATCC CRL-2974)
Procedure: as §1

IKZF3 = target: T2, IKZF3 (Homo sapiens, UniProt Q96SW2+Q9UKT9); experiment: Selectivity western blot assay in MM1 S cells, IKZF3; parameters: key: A represents no degradation observed at 30 μM; B represents trace degradation at 30 μM (below 20%); C represents weak degradation at 30 μM (below 50%); D represents degradation at 30 μM (>90%); E represents degradation at 3 μM (>90%); F represents degradation at 0.3 μM (>90%)
T2 construct: endogenous in cells; host or cells: MM1 S (ATCC CRL-2974)
Procedure: as §1

CK1alpha = target: T3, CK1alpha (Homo sapiens, UniProt P48729+Q96SW2); experiment: Selectivity western blot assay in MM1 S cells, CK1alpha; parameters: key: A represents no degradation observed at 30 μM; B represents trace degradation at 30 μM (below 20%); C represents weak degradation at 30 μM (below 50%); D represents degradation at 30 μM (>90%); E represents degradation at 3 μM (>90%); F represents degradation at 0.3 μM (>90%)
T3 construct: endogenous in cells; host or cells: MM1 S (ATCC CRL-2974)
Procedure: as §1

ZFP91 = target: T4, ZFP91 (Homo sapiens, UniProt Q96JP5+Q96SW2); experiment: Selectivity western blot assay in MM1 S cells, ZFP91; parameters: key: A represents no degradation observed at 30 μM; B represents trace degradation at 30 μM (below 20%); C represents weak degradation at 30 μM (below 50%); D represents degradation at 30 μM (>90%); E represents degradation at 3 μM (>90%); F represents degradation at 0.3 μM (>90%)
T4 construct: endogenous in cells; host or cells: MM1 S (ATCC CRL-2974)
Procedure: as §1

T2 sequence (Q9UKT9 whole entry): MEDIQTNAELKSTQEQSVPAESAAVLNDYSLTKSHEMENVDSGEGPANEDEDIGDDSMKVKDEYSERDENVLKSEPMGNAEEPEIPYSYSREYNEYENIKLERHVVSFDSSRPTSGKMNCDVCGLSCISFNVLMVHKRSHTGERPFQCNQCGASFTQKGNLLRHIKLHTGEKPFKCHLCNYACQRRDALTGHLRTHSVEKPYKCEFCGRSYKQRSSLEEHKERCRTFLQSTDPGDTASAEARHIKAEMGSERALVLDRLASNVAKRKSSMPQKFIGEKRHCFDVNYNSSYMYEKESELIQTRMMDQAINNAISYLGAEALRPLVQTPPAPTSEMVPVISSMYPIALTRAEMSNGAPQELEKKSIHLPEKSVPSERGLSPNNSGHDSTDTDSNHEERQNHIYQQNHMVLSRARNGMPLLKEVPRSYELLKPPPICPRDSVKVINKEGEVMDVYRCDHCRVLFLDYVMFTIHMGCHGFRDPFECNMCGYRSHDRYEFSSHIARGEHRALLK
T2 sequence (Q96SW2 whole entry): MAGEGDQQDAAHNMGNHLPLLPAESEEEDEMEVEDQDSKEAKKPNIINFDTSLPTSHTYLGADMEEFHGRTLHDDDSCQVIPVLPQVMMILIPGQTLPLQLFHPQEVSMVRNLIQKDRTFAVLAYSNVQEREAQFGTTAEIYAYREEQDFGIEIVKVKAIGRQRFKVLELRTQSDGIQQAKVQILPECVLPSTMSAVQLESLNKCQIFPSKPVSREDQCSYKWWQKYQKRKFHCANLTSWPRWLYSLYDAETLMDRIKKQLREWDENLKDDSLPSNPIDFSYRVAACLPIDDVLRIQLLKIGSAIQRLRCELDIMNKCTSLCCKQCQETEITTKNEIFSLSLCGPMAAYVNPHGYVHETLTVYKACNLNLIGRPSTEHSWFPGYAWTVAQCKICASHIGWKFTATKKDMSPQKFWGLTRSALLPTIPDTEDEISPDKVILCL
T2 sequence (Q16531 whole entry partner): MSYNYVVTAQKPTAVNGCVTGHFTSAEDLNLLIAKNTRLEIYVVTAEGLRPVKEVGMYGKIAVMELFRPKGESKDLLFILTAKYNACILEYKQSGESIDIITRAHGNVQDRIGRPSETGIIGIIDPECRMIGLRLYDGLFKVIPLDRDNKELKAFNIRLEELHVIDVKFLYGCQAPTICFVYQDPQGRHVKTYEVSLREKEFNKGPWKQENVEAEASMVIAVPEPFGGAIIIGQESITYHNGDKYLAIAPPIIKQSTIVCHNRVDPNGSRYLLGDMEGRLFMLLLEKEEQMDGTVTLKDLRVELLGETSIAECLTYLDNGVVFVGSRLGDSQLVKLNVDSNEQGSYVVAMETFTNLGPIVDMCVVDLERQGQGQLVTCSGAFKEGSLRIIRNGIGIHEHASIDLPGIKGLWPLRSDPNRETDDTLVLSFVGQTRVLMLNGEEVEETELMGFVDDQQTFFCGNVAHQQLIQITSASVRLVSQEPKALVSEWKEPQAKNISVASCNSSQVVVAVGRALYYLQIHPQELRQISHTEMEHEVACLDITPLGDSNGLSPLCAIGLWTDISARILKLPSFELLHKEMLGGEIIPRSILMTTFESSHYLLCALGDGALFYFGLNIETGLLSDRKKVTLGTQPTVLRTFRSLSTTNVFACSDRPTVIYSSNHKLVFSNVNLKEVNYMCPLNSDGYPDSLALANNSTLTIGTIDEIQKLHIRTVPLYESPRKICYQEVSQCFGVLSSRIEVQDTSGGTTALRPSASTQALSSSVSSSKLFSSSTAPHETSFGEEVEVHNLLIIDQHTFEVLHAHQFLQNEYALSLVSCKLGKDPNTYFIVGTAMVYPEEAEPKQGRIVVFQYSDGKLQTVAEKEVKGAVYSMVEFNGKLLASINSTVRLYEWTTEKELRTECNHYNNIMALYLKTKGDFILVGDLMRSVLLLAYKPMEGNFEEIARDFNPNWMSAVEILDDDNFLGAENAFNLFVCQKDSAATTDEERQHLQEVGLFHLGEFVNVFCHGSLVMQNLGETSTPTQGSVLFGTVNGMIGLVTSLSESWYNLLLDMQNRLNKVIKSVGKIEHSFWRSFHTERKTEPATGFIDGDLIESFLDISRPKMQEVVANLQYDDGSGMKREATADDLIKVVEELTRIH
T3 sequence (P48729 whole entry): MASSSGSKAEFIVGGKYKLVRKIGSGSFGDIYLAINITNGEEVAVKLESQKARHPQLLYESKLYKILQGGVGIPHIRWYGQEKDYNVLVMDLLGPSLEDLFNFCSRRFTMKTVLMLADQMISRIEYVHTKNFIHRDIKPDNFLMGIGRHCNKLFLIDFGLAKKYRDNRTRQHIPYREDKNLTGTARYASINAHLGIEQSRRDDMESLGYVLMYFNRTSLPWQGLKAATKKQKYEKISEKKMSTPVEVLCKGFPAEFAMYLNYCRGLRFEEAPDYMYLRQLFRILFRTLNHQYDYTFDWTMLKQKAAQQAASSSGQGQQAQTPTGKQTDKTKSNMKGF
T3 sequence (Q96SW2 whole entry): as the sequence (Q96SW2 whole entry) above
T3 sequence (Q16531 whole entry partner): as the sequence (Q16531 whole entry partner) above
GSPT1, sequence (P15170 whole entry): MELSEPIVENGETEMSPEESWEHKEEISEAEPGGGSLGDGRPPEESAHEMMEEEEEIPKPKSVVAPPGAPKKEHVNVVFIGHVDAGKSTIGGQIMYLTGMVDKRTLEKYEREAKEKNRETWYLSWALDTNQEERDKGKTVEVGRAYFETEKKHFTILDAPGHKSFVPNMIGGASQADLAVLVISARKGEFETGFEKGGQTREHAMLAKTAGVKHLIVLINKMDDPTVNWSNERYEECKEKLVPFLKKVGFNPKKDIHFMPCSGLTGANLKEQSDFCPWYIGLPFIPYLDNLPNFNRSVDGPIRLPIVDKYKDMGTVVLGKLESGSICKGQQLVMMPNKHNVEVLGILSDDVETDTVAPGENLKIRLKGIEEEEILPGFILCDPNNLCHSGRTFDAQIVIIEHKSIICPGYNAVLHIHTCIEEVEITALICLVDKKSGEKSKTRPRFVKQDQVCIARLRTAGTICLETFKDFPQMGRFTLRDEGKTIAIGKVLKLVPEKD
GSPT1, sequence (Q96SW2 whole entry): as the sequence (Q96SW2 whole entry) above
GSPT1, sequence (Q16531 whole entry partner): as the sequence (Q16531 whole entry partner) above
T1 sequence (Q13422 whole entry): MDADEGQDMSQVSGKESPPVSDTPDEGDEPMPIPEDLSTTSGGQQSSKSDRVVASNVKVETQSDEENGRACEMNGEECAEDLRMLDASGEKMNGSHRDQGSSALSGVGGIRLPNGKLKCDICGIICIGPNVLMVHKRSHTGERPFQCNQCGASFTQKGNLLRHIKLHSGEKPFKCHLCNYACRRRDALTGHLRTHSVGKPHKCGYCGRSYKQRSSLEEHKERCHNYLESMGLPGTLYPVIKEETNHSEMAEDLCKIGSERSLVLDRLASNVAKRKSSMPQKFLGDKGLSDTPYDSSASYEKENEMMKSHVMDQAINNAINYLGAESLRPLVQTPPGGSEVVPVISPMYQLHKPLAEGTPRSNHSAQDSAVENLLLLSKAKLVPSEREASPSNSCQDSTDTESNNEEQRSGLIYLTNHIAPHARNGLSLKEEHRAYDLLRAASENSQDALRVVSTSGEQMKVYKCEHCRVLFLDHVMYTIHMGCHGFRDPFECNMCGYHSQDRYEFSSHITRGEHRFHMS
T1 sequence (Q96SW2 whole entry): as the sequence (Q96SW2 whole entry) above
T1 sequence (Q16531 whole entry partner): as the sequence (Q16531 whole entry partner) above
T4 sequence (Q96JP5 whole entry): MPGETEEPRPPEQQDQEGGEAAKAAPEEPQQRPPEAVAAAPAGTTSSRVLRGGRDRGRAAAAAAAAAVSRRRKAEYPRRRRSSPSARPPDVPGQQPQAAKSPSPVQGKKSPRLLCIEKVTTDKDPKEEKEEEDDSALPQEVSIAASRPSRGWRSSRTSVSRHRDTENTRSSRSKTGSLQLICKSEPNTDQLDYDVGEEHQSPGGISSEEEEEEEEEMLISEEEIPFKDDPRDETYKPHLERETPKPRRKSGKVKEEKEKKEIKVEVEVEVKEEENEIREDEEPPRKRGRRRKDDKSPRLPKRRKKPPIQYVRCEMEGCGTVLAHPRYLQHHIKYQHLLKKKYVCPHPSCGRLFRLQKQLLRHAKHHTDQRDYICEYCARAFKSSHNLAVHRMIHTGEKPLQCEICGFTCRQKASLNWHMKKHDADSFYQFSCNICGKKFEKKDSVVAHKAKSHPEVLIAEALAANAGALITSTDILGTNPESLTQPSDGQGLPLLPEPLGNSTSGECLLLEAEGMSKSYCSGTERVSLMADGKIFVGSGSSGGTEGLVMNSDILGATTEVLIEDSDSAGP
T4 sequence (Q96SW2 whole entry): as the sequence (Q96SW2 whole entry) above
T4 sequence (Q16531 whole entry partner): as the sequence (Q16531 whole entry partner) above

| Structure (SMILES) | GSPT1 degradation (GSPT1) | IKZF1 degradation (IKZF1) | IKZF3 degradation (IKZF3) | CK1alpha degradation (CK1alpha) | ZFP91 degradation (ZFP91) |
| --- | --- | --- | --- | --- | --- |
| Cc1c(Cl)cc(NC(=O)NCc2ccc3c(c2)C(=O)N(C2CCC(=O)NC2=O)C3)cc1CN(C)C (centres unmarked) [Compound 75] | E (E represents degradation at 3 μM (>90%)) | A | A | A | A |
| Cc1c(Cl)cc(NC(=O)NCc2ccc3c(c2)C(=O)N(C2CCC(=O)NC2=O)C3)cc1CN1CCOCC1 (centres unmarked) [Compound 82] | F (F represents degradation at 0.3 μM (>90%)) | A | A | A | A |
| Cc1cc(C)c(NC(=O)NCc2ccc3c(c2)C(=O)N(C2CCC(=O)NC2=O)C3)cc1Cl (centres unmarked) [Compound 85] | E (E represents degradation at 3 μM (>90%)) | A | A | B (B represents trace degradation at 30 μM (below 20%)) | A |
| Cc1ccc(NC(=O)NCc2ccc3c(c2)C(=O)N(C2CCC(=O)NC2=O)C3)c(Cl)c1Cl (centres unmarked) [Compound 87] | E (E represents degradation at 3 μM (>90%)) | A | A | A | A |
| O=C1CCC(N2Cc3ccc(CNC(=O)Nc4cccc(CN5CCOCC5)c4)cc3C2=O)C(=O)N1 (centres unmarked) [Compound 105] | E (E represents degradation at 3 μM (>90%)) | B (B represents trace degradation at 30 μM (below 20%)) | A | A | B (B represents trace degradation at 30 μM (below 20%)) |
| Cc1c(Cl)cc(NC(=O)NCc2ccc3c(c2)C(=O)N(C2CCC(=O)NC2=O)C3)cc1CC1COCOC1 (centres unmarked) [Compound 132] | F (F represents degradation at 0.3 μM (>90%)) | A | A | C (C represents weak degradation at 30 μM (below 50%)) | C (C represents weak degradation at 30 μM (below 50%)) |
| COc1cc(C)c(Cl)cc1NC(=O)OCc1ccc2c(c1)C(=O)N(C1CCC(=O)NC1=O)C2 (centres unmarked) [Compound 201] | F (F represents degradation at 0.3 μM (>90%)) | A | B (B represents trace degradation at 30 μM (below 20%)) | B (B represents trace degradation at 30 μM (below 20%)) | A |
| Cc1ncc(NC(=O)OCc2ccc3c(c2)C(=O)N(C2CCC(=O)NC2=O)C3)cc1Cl (centres unmarked) [Compound 206] | F (F represents degradation at 0.3 μM (>90%)) | A | B (B represents trace degradation at 30 μM (below 20%)) | A |  |
| O=C1CCC(N2Cc3ccc(COC(=O)Nc4ccc(N5CCCCC5)nc4)cc3C2=O)C(=O)N1 (centres unmarked) [Compound 215] | F (F represents degradation at 0.3 μM (>90%)) | A | B (B represents trace degradation at 30 μM (below 20%)) | C (C represents weak degradation at 30 μM (below 50%)) |  |
| O=C1CCC(N2Cc3ccc(COC(=O)Nc4ccc(-c5ccccc5)nc4)cc3C2=O)C(=O)N1 (centres unmarked) [Compound 242] | F (F represents degradation at 0.3 μM (>90%)) | A | A | B (B represents trace degradation at 30 μM (below 20%)) |  |
| CC(C)(C)c1ccc(NC(=O)OCc2ccc3c(c2)C(=O)N(C2CCC(=O)NC2=O)C3)cn1 (centres unmarked) [Compound 243] | F (F represents degradation at 0.3 μM (>90%)) | A | B (B represents trace degradation at 30 μM (below 20%)) | C (C represents weak degradation at 30 μM (below 50%)) |  |
| CC(C)(C)c1ccc(NC(=O)OCc2ccc3c(c2)C(=O)N(C2CCC(=O)NC2=O)C3)cc1 (centres unmarked) [Compound 247] | F (F represents degradation at 0.3 μM (>90%)) | A | A | B (B represents trace degradation at 30 μM (below 20%)) | B (B represents trace degradation at 30 μM (below 20%)) |
| Cc1c(Cl)cc(NC(=O)OCc2ccc3c(c2)C(=O)N(C2CCC(=O)NC2=O)C3)cc1OCCN1CCOCC1 (centres unmarked) [Compound 248] | F (F represents degradation at 0.3 μM (>90%)) | A | B (B represents trace degradation at 30 μM (below 20%)) | B (B represents trace degradation at 30 μM (below 20%)) |  |
| CCc1ncc(NC(=O)OCc2ccc3c(c2)C(=O)N(C2CCC(=O)NC2=O)C3)cc1C (centres unmarked) [Compound 249] | F (F represents degradation at 0.3 μM (>90%)) | A | A | B (B represents trace degradation at 30 μM (below 20%)) | B (B represents trace degradation at 30 μM (below 20%)) |
